The structures appear in SMILES notation. Read-outs that look alike come from different tables or passages of the source.

Series [1] relates to T84 cells.
The test system of series [2] is IPEC-J2 cells.
Series [3] deals with Caco-2 cells.
The test system of series [4] is human or porcine epithelial cells.

For `Cc1ncc([N+](=O)[O-])n1CCO` [Metronidazole], in series [1] (human), the Apical fraction stood at 71.3%, the Basal fraction was 9.7% and the Intracellular fraction was determined as 19.0%. In series [2] (pig), this compound displayed an Apical fraction of 84.0%, a Basal fraction of 7.1% and an Intracellular fraction of 8.9%. In series [3] (human), this compound showed an Apical fraction of 80.2%, a Basal fraction of 12.9% and an Intracellular fraction of 12.7%.

`CO/C1=C\C(C)=C\[C@@H](C)[C@@H](O)[C@@H](C)C/C(C)=C/C=C/[C@H](OC)[C@@H]([C@@H](C)[C@@H](O)[C@H](C)[C@@]2(O)C[C@@H](O)[C@H](C)[C@@H](C(C)C)O2)OC1=O` [Bafilomycin A1]: the figures for the Apical fraction in series [1], in series [2] and in series [3] were 2.5%, 0.1% and 0.1%, respectively. In addition, the Basal fraction in series [1] is reported as 30.5%; in series [2], 28.1%; in series [3], 22.5%. The Intracellular fraction in series [1] stood at 68.0%; in series [2] it was 71.8%; in series [3] it was 77.4%. The intracellular accumulation in series [4] is given as 19.5-77.4 % of the initial dose.

(Values after US20220133842A1 (priority 2019, published 2022).)
